Literature values as cited in PMC5960647 (Experimental & Molecular Medicine, 2018).
Where no end group is shown, it is not given here.

Legend:
CCKBR [1] = details: dorsal root ganglion neurons, CCKBR in the same neuron; cited from earlier work
CCKBR [2] = details: cited from earlier work

Molecule	effect on MOR-mediated inhibition of voltage-gated calcium current (CCKBR [1])	effect on electroacupuncture analgesia (CCKBR [2]; caudate nucleus, through CCKBR)	effect on opioid analgesia (CCKBR [2]; shown with L-365,260)	effect on opioid-induced analgesia (CCKBR [2])	effect on pain threshold of administration per se (CCKBR [2])
cholecystokinin octapeptide (DYMGWMDF; ends and bridges not checked; UniProt P06307 96-103, looked up) [CCK-8]	antagonized	antagonism to electroacupuncture analgesia	inhibited opioid analgesia through CCKBR		
Cc1cccc(NC(=O)N[C@@H]2N=C(c3ccccc3)c3ccccc3N(C)C2=O)c1 [L-365,260]				potentiated opioid-induced analgesia	did not affect pain threshold
